Here are results for four compounds from ChEMBL document CHEMBL1127057, “Synthesis, optical resolution, absolute configuration, and preliminary pharmacology of (+)- and (-)-cis-2,3,3a,4,5,9b-hexahydro-1-methyl-1H- pyrrolo-[3,2-h]isoquinoline, a structural analog of nicotine” (J Med Chem, 1993).

A word on the ED50: it is the midpoint of the dose-response relation. A high value points to a need for a large dose. One may read the Ki as a measure of affinity in units of concentration, obtained from inhibition or displacement. Low readings indicate higher affinity, high ones lower affinity. The Kd is the free concentration of one partner at which half of the binding sites on the other are occupied at equilibrium, for simple one-to-one binding. Higher therefore signals weaker binding.

Experiment [1] is filed under the species Mus musculus. The experiment can be described thus: Inhibition of spontaneous activity in mice. Type of experiment: functional.
The species named for experiment [2] is Mus musculus. The experiment can be described thus: Inhibition of tail-flick response (antinociception) in mice. Type of experiment: functional.
The nature of experiment [3]: Binding affinity was evaluated towards nicotine receptor in mouse brain. It is filed as tissue-based.
The species entered for experiment [4] is Mus musculus. The experiment can be described thus: Equilibrium dissociation constant (Kd) was determined.

Structures are written as SMILES.

Take `c1cc2c(cn1)C1NCCC1CC2` (racemic): the ED50 in the experiment filed under Mus musculus [1] turned out to be 24.8 µmol/kg; in the experiment filed under Mus musculus [2], 25.7 µmol/kg. In experiment [3], this compound had a Ki of 0.167 µM.
Consider `CN1CCC2CCc3ccncc3C21` (single isomer, unassigned; (+)), for which the ED50 stood at 7.13 µmol/kg in the experiment listed under Mus musculus [1] and 7.45 µmol/kg in the experiment listed under Mus musculus [2].
With `CN1CCC2CCc3ccncc3C21` (single isomer, unassigned; (-)), in the experiment listed under Mus musculus [1], the ED50 worked out at 61.7 µmol/kg. The compound further yielded a Ki in experiment [3] of 0.605 µM.
Regarding `CN1CCC[C@H]1c1cccnc1` [NICOTINE], the figures for the 50% effective dose (ED50) in the experiment filed under Mus musculus [1] and in the experiment filed under Mus musculus [2] were 4.44 µmol/kg and 4.81 µmol/kg, respectively. The compound also came in with a Kd in the experiment filed under Mus musculus [4] of 0.00141 µM.
